# Experimental data published in patent publication US12612409B2, “Pyrrolopyrimidines as CFTR potentiators” (Cystic Fibrosis Foundation, priority 2016, dated 2026).
# What was measured:
# [1] = target: T1, recombinant F508del V470 CFTR in Fischer rat thyroid (FRT) cells (Homo sapiens, UniProt P13569, DEL508-508); test: FRT ion flux assay of F508del CFTR potentiation; assay type: cell-based; conditions: FRT cells expressing F508del V470 CFTR, forskolin 20 uM, 27° C. pre-incubation
# T1 construct: expressed in transfected cells
# T1 sequence (P13569 with tags, fused parts or gaps DEL508-508): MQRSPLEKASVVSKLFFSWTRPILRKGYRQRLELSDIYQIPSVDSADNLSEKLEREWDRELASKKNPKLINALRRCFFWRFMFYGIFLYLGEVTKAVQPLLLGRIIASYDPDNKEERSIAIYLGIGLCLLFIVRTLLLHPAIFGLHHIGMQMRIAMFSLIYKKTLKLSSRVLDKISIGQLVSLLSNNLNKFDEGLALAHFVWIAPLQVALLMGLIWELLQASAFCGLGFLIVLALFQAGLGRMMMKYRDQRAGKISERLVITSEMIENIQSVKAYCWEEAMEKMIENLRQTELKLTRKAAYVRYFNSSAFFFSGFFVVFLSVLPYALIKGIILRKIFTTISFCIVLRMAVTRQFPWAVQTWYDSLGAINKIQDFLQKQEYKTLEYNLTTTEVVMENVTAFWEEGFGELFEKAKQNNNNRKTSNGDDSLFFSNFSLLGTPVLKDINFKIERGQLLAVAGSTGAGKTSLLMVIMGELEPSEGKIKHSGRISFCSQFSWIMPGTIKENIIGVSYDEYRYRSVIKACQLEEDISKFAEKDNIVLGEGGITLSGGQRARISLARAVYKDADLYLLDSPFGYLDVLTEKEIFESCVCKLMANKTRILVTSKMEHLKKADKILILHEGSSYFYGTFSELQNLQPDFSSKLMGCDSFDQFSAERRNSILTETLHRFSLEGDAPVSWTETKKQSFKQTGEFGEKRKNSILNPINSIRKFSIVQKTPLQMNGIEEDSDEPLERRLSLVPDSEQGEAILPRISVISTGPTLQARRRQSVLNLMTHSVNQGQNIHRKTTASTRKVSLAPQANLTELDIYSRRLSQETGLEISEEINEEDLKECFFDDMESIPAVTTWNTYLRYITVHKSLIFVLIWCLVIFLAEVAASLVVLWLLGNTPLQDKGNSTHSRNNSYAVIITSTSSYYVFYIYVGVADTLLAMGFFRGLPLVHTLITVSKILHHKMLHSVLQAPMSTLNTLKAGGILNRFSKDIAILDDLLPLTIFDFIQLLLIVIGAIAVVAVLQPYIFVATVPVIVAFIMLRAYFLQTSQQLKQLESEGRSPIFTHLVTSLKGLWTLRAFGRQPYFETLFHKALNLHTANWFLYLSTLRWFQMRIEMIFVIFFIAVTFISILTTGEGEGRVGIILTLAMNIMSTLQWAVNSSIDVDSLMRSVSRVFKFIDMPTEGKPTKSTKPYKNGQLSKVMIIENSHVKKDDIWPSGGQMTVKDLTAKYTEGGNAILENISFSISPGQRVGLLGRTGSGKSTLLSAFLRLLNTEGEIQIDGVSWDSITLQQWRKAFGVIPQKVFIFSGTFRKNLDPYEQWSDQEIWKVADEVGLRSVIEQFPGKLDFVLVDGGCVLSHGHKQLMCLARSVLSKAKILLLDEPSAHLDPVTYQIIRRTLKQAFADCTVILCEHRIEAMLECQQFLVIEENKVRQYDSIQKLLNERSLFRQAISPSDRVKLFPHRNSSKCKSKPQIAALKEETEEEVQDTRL
# Summary of the method: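 Potentiation read as YFP quench ~21 s after iodide buffer addition, as second/initial fluorescence ratio normalised between DMSO (0%) and reference potentiator (100%).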
# [2] = target: T2, CFTR in F508del/F508del primary CF hBE cells (Homo sapiens, UniProt P13569, DEL508-508); test: Ussing chamber electrophysiology assay of CFTR potentiation in F508del/F508del CF bronchial epithelial cells (27° C.); assay type: cell-based
# T2 construct: Primary cystic fibrosis human bronchial epithelial (CF hBE) cells were expanded and cultured; endogenous in cells; host or cells: primary CF human bronchial epithelial cells, genotype F508del/F508del
# T2 sequence (P13569 with tags, fused parts or gaps DEL508-508): as above
# Summary of the method: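 Short-circuit current was recorded under zero-voltage clamp across primary CF bronchial epithelia cultured >30 days at air/liquid interface, bathed apically and basolaterally in HEPES-buffered saline. Sequential additions: amiloride (30 uM), forskolin (10 uM), compound at 4 increasing levels, CFTRinh-172 (20 uM). Responses normalised between DMSO (0%) and maximal positive-control potentiator (100%).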
EC50 [1],EC50 [2],Structure (SMILES)
2950 nM,2330 nM,"CCC(c1cn(-c2ccc(F)cc2F)nn1)n1cc(-c2cnc(C(F)F)nc2)c2c(N)ncnc21 (single isomer, unassigned; enantiomer 2) [Example 168, 5-[2-(Difluoromethyl)pyrimidin-5-yl]-7-{1-[1-(2,4-difluorophenyl)-1H-1,2,3-triazol-4-yl]propyl}-7H-pyrrolo[2,3-d]pyrimidin-4-amine, enantiomer 2]"
214 nM,48.8 nM,"CCC(c1cn(-c2cccc(F)c2F)nn1)n1cc(-c2cc(F)cnc2OC)c2c(N)ncnc21 (single isomer, unassigned; enantiomer 2) [Example 170, 7-{1-[1-(2,3-Difluorophenyl)-1H-1,2,3-triazol-4-yl]propyl}-5-(5-fluoro-2-methoxypyridin-3-yl)-7H-pyrrolo[2,3-d]pyrimidin-4-amine, enantiomer 2]"
203 nM,77.6 nM,"CCC(c1cn(-c2cc(F)ccc2F)nn1)n1cc(-c2cc(F)cnc2OC)c2c(N)ncnc21 (single isomer, unassigned; enantiomer 2) [Example 172, 7-{1-[1-(2,5-Difluorophenyl)-1H-1,2,3-triazol-4-yl]propyl}-5-(5-fluoro-2-methoxypyridin-3-yl)-7H-pyrrolo[2,3-d]pyrimidin-4-amine, enantiomer 2]"
204 nM,106 nM,"CCC(c1cnn(-c2ccccc2F)c1)n1cc(-c2cnc(C(F)(F)F)nc2)c2c(N)ncnc21 (single isomer, unassigned; enantiomer 2) [Example 176, 7-{(1-[1-(2-Fluorophenyl)-1H-pyrazol-4-yl]propyl}-5-[2-(trifluoromethyl)pyrimidin-5-yl]-7H-pyrrolo[2,3-d]pyrimidin-4-amine, enantiomer 2]"
468 nM,446 nM,"CC(c1cc(-c2ccccc2F)no1)n1cc(-c2ccc(Cl)cc2)c2c(N)ncnc21 (single isomer, unassigned; enantiomer 2) [Example 182, (−)-5-(4-Chlorophenyl)-7-{1-[3-(2-fluorophenyl)-1,2-oxazol-5-yl]ethyl}-7H-pyrrolo[2,3-d]pyrimidin-4-amine, enantiomer 2]"
154 nM,453 nM,"COc1ncncc1-c1cn(C(c2cn(-c3ccccc3F)nn2)C2CC2)c2ncnc(N)c12 (single isomer, unassigned; enantiomer 2) [Example 300, (−) 7-{Cyclopropyl[1-(2-fluorophenyl)-1H-1,2,3-triazol-4-yl]methyl}-5-(4-methoxypyrimidin-5-yl)-7H-pyrrolo[2,3-d]pyrimidin-4-amine, enantiomer 2]"
190 nM,135 nM,"CCC(c1cn(-c2ccccc2F)nn1)n1cc(-c2cncnc2OC)c2c(N)nc(C)nc21 (single isomer, unassigned; enantiomer 2) [Example 304, (−) 7-{1-[1-(2-fluorophenyl)-1H-1,2,3-triazol-4-yl]propyl}-5-(4-methoxypyrimidin-5-yl)-2-methyl-7H-pyrrolo[2,3-d]pyrimidin-4-amine, enantiomer 2]"
22.2 nM,26.1 nM,"CCC(c1cn(-c2cccc(F)c2F)nn1)n1cc(-c2cncnc2OC)c2c(N)ncnc21 (single isomer, unassigned; enantiomer 2) [Example 306, (+) 7-{1-[1-(2,3-Difluorophenyl)-1H-1,2,3-triazol-4-yl]propyl}-5-(4-methoxypyrimidin-5-yl)-7H-pyrrolo[2,3-d]pyrimidin-4-amine, enantiomer 2]"
362 nM,430 nM,"CCC(c1cn(-c2cc(F)ccc2F)nn1)n1cc(-c2cncnc2OC)c2c(N)ncnc21 (single isomer, unassigned; enantiomer 2) [Example 308, (−) 7-{1-[1-(2,5-Difluorophenyl)-1H-1,2,3-triazol-4-yl]propyl}-5-(4-methoxypyrimidin-5-yl)-7H-pyrrolo[2,3-d]pyrimidin-4-amine, enantiomer 2]"
1020 nM,279 nM,"CCC(c1cn(-c2cc(F)cc(F)c2)nn1)n1cc(-c2cnc(C(F)(F)F)nc2)c2c(N)ncnc21 (single isomer, unassigned; enantiomer 2) [Example 312, 7-{1-[1-(3,5-Difluorophenyl)-1H-1,2,3-triazol-4-yl]propyl}-5-[2-(trifluoromethyl)pyrimidin-5-yl]-7H-pyrrolo[2,3-d]pyrimidin-4-amine, enantiomer 2]"
74.9 nM,131 nM,"CCC(c1cn(-c2ccc(F)c(F)c2)nn1)n1cc(-c2cnc(C(F)F)nc2)c2c(N)ncnc21 (single isomer, unassigned; enantiomer 2) [Example 313, 5-[2-(Difluoromethyl)pyrimidin-5-yl]-7-{1-[1-(3,4-difluorophenyl)-1H-1,2,3-triazol-4-yl]propyl}-7H-pyrrolo[2,3-d]pyrimidin-4-amine, enantiomer 2]"
754 nM,541 nM,"CCC(c1cn(-c2ccccc2F)nn1)n1cc(C2CC2)c2c(N)ncnc21 (single isomer, unassigned; enantiomer 2) [Example 316, (+) 5-Cyclopropyl-7-{1-[1-(2-fluorophenyl)-1H-1,2,3-triazol-4-yl]propyl}-7H-pyrrolo[2,3-d]pyrimidin-4-amine, enantiomer 2]"
359 nM,141 nM,"CC(c1cn(-c2ccc(F)cc2F)nn1)n1c(C#N)c(-c2ccc(OC3CC3)nc2)c2c(N)ncnc21 (single isomer, unassigned; enantiomer 2) [Example 321, 4-Amino-5-[6-(cyclopropyloxy)pyridin-3-yl]-7-{1-[1-(2,4-difluorophenyl)-1H-1,2,3-triazol-4-yl]ethyl}-7H-pyrrolo[2,3-d]pyrimidine-6-carbonitrile, enantiomer 2]"
95.9 nM,41 nM,"CC(C)n1cc(Cn2c(C#N)c(-c3ccc(Cl)cc3)c3c(N)ncnc32)cn1 [Example 25, 4-Amino-5-(4-chlorophenyl)-7-{[1-(propan-2-yl)-1H-pyrazol-4-yl]methyl}-7H-pyrrolo[2,3-d]pyrimidine-6-carbonitrile]"
130 nM,35.7 nM,"N#Cc1c(-c2ccc(Cl)cc2)c2c(N)ncnc2n1Cc1cn(-c2ccccc2F)nn1 [Example 26, 4-Amino-5-(4-chlorophenyl)-7-{[1-(2-fluorophenyl)-1H-1,2,3-triazol-4-yl]methyl}-7H-pyrrolo[2,3-d]pyrimidine-6-carbonitrile]"
2.33 nM,2.24 nM,"N#Cc1c(-c2cnc(C(F)(F)F)nc2)c2c(N)ncnc2n1Cc1cnn(-c2ccc(F)cc2F)c1 [Example 29, 4-Amino-7-{[1-(2,4-difluorophenyl)-1H-pyrazol-4-yl]methyl}-5-[2-(trifluoromethyl)pyrimidin-5-yl]-7H-pyrrolo[2,3-d]pyrimidine-6-carbonitrile]"
0.59 nM,2.03 nM,"N#Cc1c(-c2cnc(C(F)F)nc2)c2c(N)ncnc2n1Cc1cnn(-c2ccccc2F)c1 [Example 30, 4-Amino-5-[2-(difluoromethyl)pyrimidin-5-yl]-7-{[1-(2-fluorophenyl)-1H-pyrazol-4-yl]methyl}-7H-pyrrolo[2,3-d]pyrimidine-6-carbonitrile]"
13.5 nM,16.3 nM,N#Cc1c(-c2cnc(C(F)(F)F)nc2)c2c(N)ncnc2n1Cc1cn(-c2ccccc2F)nn1 [Example 37]
2.18 nM,1.3 nM,"Nc1ncnc2c1c(-c1cnc(C(F)(F)F)nc1)c(Br)n2Cc1cnn(-c2ccccc2F)c1 [Example 40, 6-bromo-7-{[1-(2-fluorophenyl)-1H-pyrazol-4-yl]methyl}-5-[2-(trifluoromethyl)pyrimidin-5-yl]-7H-pyrrolo[2,3-d]pyrimidin-4-amine]"
28.8 nM,65.9 nM,"Nc1ncnc2c1c(-c1cnc(C(F)(F)F)nc1)cn2Cc1cnn(-c2ccccc2F)c1 [Example 57, 7-((1-(2-fluorophenyl)-1H-pyrazol-4-yl)methyl)-5-(2-(trifluoromethyl)pyrimidin-5-yl)-7H-pyrrolo[2,3-d]pyrimidin-4-amine]"
232 nM,28.9 nM,"CC(c1cn(-c2ccccc2F)nn1)n1cc(-c2ccc(Cl)cc2)c2c(N)ncnc21 (stereo not drawn) [Example 58, 5-(4-Chlorophenyl)-7-{1-[1-(2-fluorophenyl)-1H-1,2,3-triazol-4-yl]ethyl}-7H-pyrrolo[2,3-d]pyrimidin-4-amine]"
195 nM,32 nM,"COc1ccc(-c2cn(C(C)c3cnc(-c4ccccc4F)[nH]3)c3ncnc(N)c23)c(F)c1 (stereo not drawn) [Example 59, 5-(2-Fluoro-4-methoxyphenyl)-7-{1-[2-(2-fluorophenyl)-1H-imidazol-5-yl]ethyl}-7H-pyrrolo[2,3-d]pyrimidin-4-amine]"
45.3 nM,80 nM,"CC(c1cnc(-c2ccccc2F)[nH]1)n1cc(-c2cc[nH]n2)c2c(N)ncnc21 (stereo not drawn) [Example 60, 7-{1-[2-(2-Fluorophenyl)-1H-imidazol-5-yl]ethyl}-5-(1H-pyrazol-3-yl)-7H-pyrrolo[2,3-d]pyrimidin-4-amine]"
80 nM,80.3 nM,"CC(c1cnc(-c2ccccc2F)[nH]1)n1cc(-c2ccc(C(F)(F)F)nc2)c2c(N)ncnc21 (stereo not drawn) [Example 64, 7-{1-[2-(2-Fluorophenyl)-1H-imidazol-5-yl]ethyl}-5-[6-(trifluoromethyl)pyridin-3-yl]-7H-pyrrolo[2,3-d]pyrimidin-4-amine]"
